Test results reported in patent publication US10189809B2, “SGC stimulators” (Ironwood Pharmaceuticals, Inc., priority 2010, dated 2019).
Where two headings read alike, the source gives them in different places.

Key:
[1] = target: T1, soluble guanylate cyclase (sGC) (Homo sapiens (Human), UniProt Q02108+Q02153); assay: sGC-HEK-cGMP assay run with SNP incubation (HEK WC assay); format: cell-based; details: for HEK WC Assay (fold increase at 30 μM in the presence of 10 μM SNP): compound at 30 μM; for EC50: in the presence of 10 uM SNP
T1 sequence (Q02153 whole entry): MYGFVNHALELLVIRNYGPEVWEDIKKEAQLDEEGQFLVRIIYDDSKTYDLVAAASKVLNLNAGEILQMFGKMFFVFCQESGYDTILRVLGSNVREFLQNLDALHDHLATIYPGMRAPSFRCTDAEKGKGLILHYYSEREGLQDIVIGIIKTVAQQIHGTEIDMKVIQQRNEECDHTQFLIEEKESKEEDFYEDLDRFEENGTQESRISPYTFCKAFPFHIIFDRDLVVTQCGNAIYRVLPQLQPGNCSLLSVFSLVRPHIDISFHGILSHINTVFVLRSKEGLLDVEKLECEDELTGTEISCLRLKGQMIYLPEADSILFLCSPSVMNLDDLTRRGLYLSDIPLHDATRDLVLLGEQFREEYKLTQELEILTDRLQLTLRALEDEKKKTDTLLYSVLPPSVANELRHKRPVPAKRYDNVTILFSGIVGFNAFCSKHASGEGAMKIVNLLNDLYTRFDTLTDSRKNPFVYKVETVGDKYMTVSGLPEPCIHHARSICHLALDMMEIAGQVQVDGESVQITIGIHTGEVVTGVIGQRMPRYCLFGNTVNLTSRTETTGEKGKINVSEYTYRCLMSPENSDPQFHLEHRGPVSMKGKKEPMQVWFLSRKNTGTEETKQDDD
T1 sequence (Q02108 whole entry): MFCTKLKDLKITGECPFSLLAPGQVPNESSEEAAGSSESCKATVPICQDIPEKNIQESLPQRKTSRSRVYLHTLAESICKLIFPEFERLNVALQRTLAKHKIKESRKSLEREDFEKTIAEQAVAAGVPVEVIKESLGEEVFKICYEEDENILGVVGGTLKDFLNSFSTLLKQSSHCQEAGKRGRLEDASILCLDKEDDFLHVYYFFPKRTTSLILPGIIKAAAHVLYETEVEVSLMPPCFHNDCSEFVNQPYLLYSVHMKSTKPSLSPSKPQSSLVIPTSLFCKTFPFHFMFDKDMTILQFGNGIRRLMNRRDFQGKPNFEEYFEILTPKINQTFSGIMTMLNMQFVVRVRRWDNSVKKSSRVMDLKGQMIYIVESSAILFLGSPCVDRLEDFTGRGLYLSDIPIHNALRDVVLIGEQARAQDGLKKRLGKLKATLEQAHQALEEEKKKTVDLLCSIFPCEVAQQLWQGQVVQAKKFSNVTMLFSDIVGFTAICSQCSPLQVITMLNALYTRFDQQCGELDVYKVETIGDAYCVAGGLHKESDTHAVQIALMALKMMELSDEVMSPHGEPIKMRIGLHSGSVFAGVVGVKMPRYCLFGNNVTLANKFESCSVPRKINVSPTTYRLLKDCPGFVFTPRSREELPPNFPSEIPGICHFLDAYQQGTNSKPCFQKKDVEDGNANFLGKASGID
Procedure, shortened: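 HEK293 cells with endogenous sGC were pretreated with 0.5 mM IBMX for 15 min at 37 °C, then exposed to test compound plus sodium nitroprusside for 10 min at 37 °C.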

[2] = target: T1, soluble guanylate cyclase (sGC); assay: sGC-HEK-cGMP assay run in the absence of SNP (HEK WC assay); format: cell-based; details: compound at 30 μM, absence of SNP
Protocol: Human embryonic kidney cells (HEK293), endogenously expressing soluble guanylate cyclase (sGC), were used to evaluate the activity of test compounds. Compounds stimulating the sGC receptor should cause an increase in the intracellular concentration of cGMP. HEK 293 cells were seeded in Dulbecco's Modification of Eagle's Medium supplemented with fetal bovine serum (10% final) and L-glutamine (2 mM final) in a 200 μL volume at a density of 1×10^5 cells/well in a poly-D-lysine coated 96 well flat bottom plate and grown overnight at 37° C. Medium was aspirated and cells were washed with 1× Hank's Buffered Saline Salt Solution (200 μL). Cells were then incubated for 15 minutes at 37° C. with 0.5 mM 3-isobutyl-1-methylxanthine (200 μL). Test article was then added to the assay mixture (2 μL) and incubated at 37° C. for 10 minutes. After the 10 minute incubation, the assay mixture was aspirated and 0.1M HCl (200 μL) was added to the cells. The plate was incubated at 4° C. for 30 minutes in the 0.1M HCl to stop the reaction and lysed the cells. The plates were then centrifuged at 1,200 g for 5 minutes at room temperature. Supernatants were collected and transferred to a new flat bottom 96 well plate for analysis. Vehicle controls were carried out using DMSO (1%). A known sGC stimulator, BAY 41-2272, was used as the positive control. Samples were diluted with an equal volume of 1 M Ammonium Acetate (pH 7) to neutralize samples for better chromatography. A 2× cGMP standard curve was prepared in 0.1 M HCl and then diluted with an equal volume of 1 M Ammonium Acetate, with the following final concentrations in nM: 1024, 512, 256, 128, 64, 32, 16, 8, 4, 2, 1. cGMP concentrations were determined from each sample using the LC/MS conditions (Table 2 below) and calculated standard curve. EC50 values were calculated from concentration-response curves generated with GraphPad Prism Software.

[3] = read-out: HEK WC Assay (% Emax at 1 μM with 10 uM SNP)
[4] = read-out: HEK WC Assay (% Emax at 10 μM with 10 uM SNP)
[5] = read-out: HEK WC Assay (% Emax at 30 μM with 10 uM SNP)

Compound | HEK WC Assay (fold increase at 30 μM in the presence of 10 μM SNP) [1] | EC50 [1] [µM] | Emax [1, 3] [%] | Emax [1, 4] [%] | Emax [1, 5] [%] | HEK WC Assay (fold increase at 30 μM in the absence of SNP) [2] | Emax at 10 µM ([1]; read-out: HEK WC Assay (% Emax at 10 μM/with 10 uM SNP)) [%] | Emax at 30 µM ([1]; read-out: HEK WC Assay (% Emax at 30 μM/with 10 uM SNP)) [%]
NCC(=O)Nc1cnc(-c2cc(-c3ccon3)n(Cc3ccccc3F)n2)nc1N [Compound I-213] | E (E = 10 to <20 fold increase) | 60 to 100 | 0 to 10 | 10 to 20 | 20 to 40 | D (D = 5 to <10 fold increase) | – | –
COc1oc(-c2cc(-c3ncccn3)nn2Cc2ccccc2F)nc1C [Compound I-291] | B (B = 1 to <2 fold increase) | – | – | 0 to 10 | 0 to 10 | B (B = 1 to <2 fold increase) | – | –
CCOC(=O)c1cnc(-c2cc(-c3ccon3)n(Cc3ccccc3F)n2)nc1NCc1ccc(OC)cc1 [Compound I-134] | B (B = 1 to <2 fold increase) | – | – | 0 to 10 | 0 to 10 | B (B = 1 to <2 fold increase) | 20 to 40 | 40 to 60
Nc1nc(-c2cc(-c3ccon3)n(Cc3ccccc3F)n2)ncc1NC(=O)c1cccc(F)c1 [Compound I-171] | E (E = 10 to <20 fold increase) | < 20 | 60 to 80 | 100 to 120 | 80 to 100 | E (E = 10 to <20 fold increase) | – | –
Fc1ccccc1Cn1nc(-c2ccccn2)cc1N1CCCC1 [Compound I-288] | C (C = 2 to <5 fold increase) | – | – | – | – | C (C = 2 to <5 fold increase) | – | –
Oc1nc(-c2cc(-c3ncco3)n(Cc3ccccc3F)n2)ncc1F [Compound I-197] | E (E = 10 to <20 fold increase) | 20 to 40 | 10 to 20 | 40 to 60 | 40 to 60 | C (C = 2 to <5 fold increase) | – | –
Fc1ccccc1Cn1nc(-c2ncccn2)cc1-c1ccco1 [Compound I-306] | E (E = 10 to <20 fold increase) | < 20 | – | 20 to 40 | 40 to 60 | D (D = 5 to <10 fold increase) | – | –
Nc1cc(O)nc(-c2cc(-c3ccon3)n(Cc3ccccc3F)n2)n1 [Compound I-154] | B (B = 1 to <2 fold increase) | – | – | 0 to 10 | 10 to 20 | B (B = 1 to <2 fold increase) | – | –
O=S(=O)(c1cnc(-c2cc(-c3ccon3)n(Cc3ccccc3F)n2)nc1O)N1CCOCC1 [Compound I-224] | E (E = 10 to <20 fold increase) | < 20 | 20 to 40 | 40 to 60 | 40 to 60 | C (C = 2 to <5 fold increase) | – | –
CNc1cnc(-c2cc(-c3ccon3)n(Cc3ccccc3F)n2)nc1N [Compound I-143] | D (D = 5 to <10 fold increase) | 40 to 60 | – | 40 to 60 | 40 to 60 | C (C = 2 to <5 fold increase) | – | –
O=[N+]([O-])c1cnc(-c2cc(-c3ccon3)n(Cc3ccccc3F)n2)nc1O [Compound I-170] | B (B = 1 to <2 fold increase) | – | 0 to 10 | 0 to 10 | – | B (B = 1 to <2 fold increase) | – | –
Nc1nc(-c2cc(-c3ccon3)n(Cc3ccccc3F)n2)ncc1NC(=O)CN1C(=O)c2ccccc2C1=O [Compound I-212] | E (E = 10 to <20 fold increase) | < 20 | 60 to 80 | 60 to 80 | 60 to 80 | D (D = 5 to <10 fold increase) | – | –
